Source: publication PMC9694926, “Novel Uracil-Based Inhibitors of Acetylcholinesterase with Potency for Treating Memory Impairment in an Animal Model of Alzheimer’s Disease” (Molecules, 2022)
Structures can show the parent of a compound that is named as a salt. Where two headings read alike, the source gives them in different places.

How the values were obtained:
hBChE [1] = molecular target: T1, hBChE (Homo sapiens, UniProt P06276); test: biochemical; conditions: butyrylthiocholine 1 mM, mean of three independent measurements
T1 construct: hBChE from blood plasma; purchased Sigma-Aldrich; host or cells: human blood plasma
T1 sequence (P06276 29-602): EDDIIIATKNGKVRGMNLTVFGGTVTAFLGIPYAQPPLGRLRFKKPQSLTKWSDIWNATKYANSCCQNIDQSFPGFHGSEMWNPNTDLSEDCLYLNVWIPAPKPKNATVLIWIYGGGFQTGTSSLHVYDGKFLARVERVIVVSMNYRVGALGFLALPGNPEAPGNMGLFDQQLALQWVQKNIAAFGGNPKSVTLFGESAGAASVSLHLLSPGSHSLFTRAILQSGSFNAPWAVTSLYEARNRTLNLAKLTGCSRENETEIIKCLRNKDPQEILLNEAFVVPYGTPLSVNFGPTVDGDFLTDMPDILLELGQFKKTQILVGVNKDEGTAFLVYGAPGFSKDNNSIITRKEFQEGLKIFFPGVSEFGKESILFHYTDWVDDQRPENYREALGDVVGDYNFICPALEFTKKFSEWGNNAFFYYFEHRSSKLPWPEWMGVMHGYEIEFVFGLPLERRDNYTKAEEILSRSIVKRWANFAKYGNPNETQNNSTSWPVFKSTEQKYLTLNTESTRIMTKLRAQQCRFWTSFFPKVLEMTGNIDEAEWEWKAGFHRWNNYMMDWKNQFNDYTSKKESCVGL
Method: (§1) The inhibitory potency of compounds against hAChE and hBChE was studied using Ellman’s method. Acetylthiocholine iodide (ATC), butyrylthiocholine iodide (BTC), recombinant hAChE, hBChE from blood plasma, and 5,5′-dithio-bis-(2-nitrobenzoic) acid (DTNB) were purchased from Sigma-Aldrich (Sigma-Aldrich, St. Louis, MO, USA). Stock solutions of compounds (0.01 M) were prepared using ethanol or water. In the case of compounds soluble in ethanol, the final concentration of ethanol in the cuvette was 0.1% vol. […] The enzyme-catalyzed reaction of hydrolysis was carried out in 0.1 M phosphate buffer at pH 8.0 containing 0.25 units of hAChE or hBChE and 1 mM ATC or BTC as substrates. The tested compounds were pre-incubated with the enzyme for 5 min at 25 °C prior to the addition of the substrate and the commencement of hydrolysis kinetics recording. Experiments were performed in triplicate. […] The sample without substrate was used as a blank. The sample without inhibitor was used as a control (in a solution of 0.1% vol. ethanol in the case of compounds soluble in ethanol). Percentage of AChE/BChE inhibition was determined by comparison of rates of reaction of test samples relative to the control sample. The percentage of inhibition as a function of compound concentration was plotted using OriginPro 8.5 software (OriginLab Corporation, Northampton, MA, USA).

[2] = Acute toxicity (LD50), intraperitoneal injection; format: in vivo; conditions: CD1, mouse, in vivo, ip; mice, i.p. injection
Method: (§2) All experiments involving animals were performed in accordance with the guidelines set out by the European Union Council Directive 2010/63/EU; the experimental protocols were approved by the Animal Care and Use Committee of the Federal Research Center “Kazan Scientific Center of the Russian Academy of Sciences”. Toxicological experiments were performed using intraperitoneal injection of the various compounds in CD1 mice weighing 20–25 g. Mice were maintained on a 12 h light/dark cycle (light from 7:00 a.m. to 7:00 p.m.) at 20−22 °C and 60−70% relative humidity. Five different doses (determined during preliminary tests) were used with six animals per dose. Animals were observed 14 days after injection, and symptoms of intoxication were recorded. […] LD50 was determined by the method of Weiss. Stock solutions of compounds were prepared in ethanol or water. Compounds were administered intraperitoneally in sterile physiological saline. The concentration of ethanol in physiological saline was 5% vol.

hAChE [3] = molecular target: T2, hAChE (Homo sapiens, UniProt P22303); test: biochemical; format: biochemical; conditions: for AChE Selectivity: (IC50 BChE)/(IC50 AChE); for IC50: human AChE, acetylthiocholine 1 mM, mean of three independent measurements
T2 construct: purchased Sigma-Aldrich
T2 sequence (P22303 32-614): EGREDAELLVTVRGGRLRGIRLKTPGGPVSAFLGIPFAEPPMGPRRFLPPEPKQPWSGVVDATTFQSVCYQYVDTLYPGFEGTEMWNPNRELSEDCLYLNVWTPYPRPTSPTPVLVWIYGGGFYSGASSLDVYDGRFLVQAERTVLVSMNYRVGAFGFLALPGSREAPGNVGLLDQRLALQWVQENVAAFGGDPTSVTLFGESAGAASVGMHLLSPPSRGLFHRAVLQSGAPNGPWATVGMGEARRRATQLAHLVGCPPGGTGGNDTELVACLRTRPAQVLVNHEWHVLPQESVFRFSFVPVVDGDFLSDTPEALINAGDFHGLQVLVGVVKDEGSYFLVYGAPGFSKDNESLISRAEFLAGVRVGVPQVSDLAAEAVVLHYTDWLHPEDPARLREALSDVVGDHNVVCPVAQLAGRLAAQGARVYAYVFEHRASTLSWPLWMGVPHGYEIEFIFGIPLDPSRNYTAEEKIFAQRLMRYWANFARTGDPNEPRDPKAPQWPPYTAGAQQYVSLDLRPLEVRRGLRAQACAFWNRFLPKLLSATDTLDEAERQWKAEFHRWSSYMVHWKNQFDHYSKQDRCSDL
Method: as §1

CD1 mice [4] = conditions: i.p. injection, cited from earlier work
hAChE [5] = molecular target: T2, hAChE; conditions: cited from earlier work; for IC50: human AChE
hBChE [6] = molecular target: T1, hBChE; conditions: cited from earlier work
CD1 mice [7] = test: Acute toxicity (LD50), intraperitoneal injection; format: in vivo; conditions: i.p. injection
Method: as §2

[8] = test system: scopolamine-induced amnesia in mice; test: T-maze spatial memory test in scopolamine-induced amnesia model; format: in vivo, CD1 mice; conditions: scopolamine 2 mg/kg i.p.; 1 mg/kg p.o. daily
Method: During the first set of in vivo experiments, the ability of compound 2c to reverse the scopolamine-induced amnesia in mice was studied by means of behavioral testing in a T-maze. The percentages of correct choices and mice reaching the criterion of learning were evaluated along with the dynamic of reaching the criterion of learning. Amnesia was caused by intraperitoneal administration of scopolamine (2 mg/kg) 40 min prior to testing. […]. The control group of mice was treated with saline. The behavior of mice was observed within 18 days (Figure 6A).
Scopolamine, representing a muscarinic acetylcholine receptor antagonist, produces a transient receptor blockade and cognitive deficits, which can be considered as a model of AD [28]. CD1 mice were randomly divided into 5 groups (n = 8–10): control group of mice treated with saline; mice injected with a water solution of scopolamine (2 mg/kg, i.p.) at 40 min before testing; […]. Drugs were administered over 18 days.
A reward alternation task was used to assess spatial memory performance in T-maze (OpenScience, Moscow, Russia) as previously described. Briefly, prior to commencing T-maze testing, mice were placed on a food-deprivation schedule over 3 days. […] The percentages of correct choices and mice reaching the criterion of learning were evaluated along with the dynamic of reaching the criterion of learning.

APP/PS1 mice = conditions: 1 mg/kg p.o. daily
Description: Wild-type and APP/PS1 saline treated mice were employed as negative and positive controls, respectively. The behavior of mice in the T-maze was observed within 18 days (Figure 7A).
Mice were assigned to four groups (n = 8–10). […] APP/PS1 mice and their wild-type non-transgenic littermates that received saline were used as positive and negative controls.
A reward alternation task was used to assess spatial memory performance in T-maze (OpenScience, Moscow, Russia) as previously described [32, 33]. Briefly, prior to commencing T-maze testing, mice were placed on a food-deprivation schedule over 3 days. On the fourth day, mice were placed in the start arm of the T-maze and made it possible to move freely. Over the next 14 days of testing, mice were given 6 pairs of training trials. In the first trial of each pair (forced trial), one of the goal arm guillotine doors was closed and the mouse was constrained to selecting the opposite arm. The mouse was returned to the start box 15–20 s after consuming the reward (diluted sweetened condensed milk). In the second (free choice) trial, both goal arm doors were opened, the arm opposite the one selected in the forced trial was baited. […] The percentages of correct choices and mice reaching the criterion of learning were evaluated along with the dynamic of reaching the criterion of learning.

Structure (SMILES)	IC50 (hBChE [1]) [µM]	LD50 at 14 days [2] [mg/kg]	AChE Selectivity (hAChE [3])	IC50 (hAChE [3]) [µM]	further results
CCN(CCCn1c(C)cc(=O)n(CCCN(CC)Cc2cccc(C(=O)OC)c2)c1=O)Cc1cccc(C(=O)OC)c1 [2a, 1,3-Bis[3-(meta-methoxycarbonylbenzylethylamino)propyl]-6-methyluracil]	16	170	0.08	210	–
CCN(CCCCCCn1c(C)cc(=O)n(CCCCCCN(CC)Cc2ccc(C(=O)OC)cc2)c1=O)Cc1ccc(C(=O)OC)cc1 [3c, 1,3-Bis[6-(para-methoxycarbonylbenzylethylamino)hexyl]-6-methyluracil]	59.9	87	2218	0.027 ± 0.007	selectivity against AChE lower compared to compound 2c (hAChE [3]; AChE vs BChE): more than 15 times
CCN(CCCCCn1c(C)cc(=O)n(CCCCCN(CC)Cc2ccccc2C#N)c1=O)Cc1ccccc1C#N [1c]	–	–	–	–	LD50 (CD1 mice [4]; ref [14]): 138 mg/kg; IC50 (hAChE [5]; ref [14]): 0.0073 ± 0.0006 µM; IC50 (hBChE [6]; ref [14]): 100 µM
CCN(CCCCCn1c(C)cc(=O)n(CCCCCN(CC)Cc2cccc(C(=O)OC)c2)c1=O)Cc1cccc(C(=O)OC)c1 [compound 9]	–	–	–	–	LD50 (CD1 mice [7]): 96 mg/kg; solubility in water (Solubility in water): water-soluble
CCN(CCCCCn1c(C)cc(=O)n(CCCCCN(CC)Cc2ccc(C(=O)OC)cc2)c1=O)Cc1ccc(C(=O)OC)cc1 [3b, 1,3-Bis[5-(para-methoxycarbonylbenzylethylamino)pentyl]-6-methyluracil]	273	188	355.5	0.768 ± 0.08	–
CCN(CCCCCn1c(C)cc(=O)n(CCCCCN(CC)Cc2ccccc2C(F)(F)F)c1=O)Cc1ccccc1C(F)(F)F [1b]	–	–	–	–	LD50 (CD1 mice [4]; ref [12]): 49 mg/kg; IC50 (hAChE [5]; ref [12]): 0.0056 ± 0.0007 µM; IC50 (hBChE [6]; ref [12]): 20 µM
CCN(CCCCn1c(=O)c2ccccc2n(CCCCN(CC)Cc2cccc(C(=O)OC)c2)c1=O)Cc1cccc(C(=O)OC)c1 [4a, 1,3-Bis[4-(meta-methoxycarbonylbenzylethylamino)butyl]-quinazoline-2,4-dione]	3.16 ± 0.39	120	7	0.46 ± 0.095	–
CCN(CCCCCn1c(=O)c2ccccc2n(CCCCCN(CC)Cc2cccc(C(=O)OC)c2)c1=O)Cc1cccc(C(=O)OC)c1 [4b]	2.38 ± 0.49	93	8.2	0.29 ± 0.042	–
CCN(CCCCn1c(C)cc(=O)n(CCCCN(CC)Cc2cccc(C(=O)OC)c2)c1=O)Cc1cccc(C(=O)OC)c1 [2b, 1,3-Bis[4-(meta-methoxycarbonylbenzylethylamino)butyl]-6-methyluracil]	19.5	120	722	0.027 ± 0.003	–
CCN(CCCCCn1c(C)cc(=O)n(CCCCCN(CC)Cc2ccccc2[N+](=O)[O-])c1=O)Cc1ccccc1[N+](=O)[O-] [1a]	–	–	–	–	LD50 (CD1 mice [4]; ref [12]): 51 mg/kg; AChE Selectivity (hAChE [5]; (IC50 BChE)/(IC50 AChE), ref [12]): 10,000; IC50 (hAChE [5]; ref [12]): 0.0035 ± 0.0003 µM; IC50 (hBChE [6]; ref [12]): 35 µM
CCN(CCCCCn1c(C)cc(=O)n(CCCCCN(CC)Cc2ccc(C(=O)[O-])cc2)c1=O)Cc1ccc(C(=O)[O-])cc1.[Na+].[Na+] [3d, 1,3-Bis[5-((para-methylbenzoate)ethylamino)pentyl]-6-methyluracil disodium salt]	> 100000	168	–	0.0046 ± 0.0004	–
CCN(CCCCn1c(C)cc(=O)n(CCCCN(CC)Cc2ccc(C(=O)OC)cc2)c1=O)Cc1ccc(C(=O)OC)cc1 [3a, 1,3-Bis[4-(para-methoxycarbonylbenzylethylamino)butyl]-6-methyluracil]	128	51	39	3.3 ± 0.58	–
CCN(CCCCCn1c(C)cc(=O)n(CCCCCN(CC)Cc2cccc(C(=O)[O-])c2)c1=O)Cc1cccc(C(=O)[O-])c1.[Na+].[Na+] [2e, 1,3-Bis[5-((meta-methylbenzoate)ethylamino)pentyl]-6-methyluracil disodium salt]	~21000	170	1.6 × 10^6	0.013 ± 0.001	–
CCN(CCCCCCn1c(C)cc(=O)n(CCCCCCN(CC)Cc2cccc(C(=O)OC)c2)c1=O)Cc1cccc(C(=O)OC)c1 [2d, 1,3-Bis[6-(meta-methoxycarbonylbenzylethylamino)hexyl]-6-methyluracil]	1.34 ± 0.33	47.5	285	0.0047 ± 0.00017	–
COc1cc2c(cc1OC)C(=O)C(CC1CCN(Cc3ccccc3)CC1)C2 (centres unmarked) [Donepezil, donepezil hydrochloride]	–	–	–	–	percentage of correct choices in T-maze [8]: 66.78 ± 2.62%; percentage of mice reaching the criterion of learning by day 14 [8]: 80%; percentage of correct choices in T-maze (APP/PS1 mice): 67.46 ± 2.35%; percentage of mice reaching the criterion of learning (APP/PS1 mice): 50%
